A word on the Ki: it is the equilibrium dissociation constant of an inhibitor or competing ligand from its target.

This is an account of results in patent publication US20130343993A1, “RADIOLABELED 5-HT6 LIGANDS” (AbbVie Inc., priority 2012, published 2013).

Like-named read-outs stand apart in the source and are kept apart here.

One series addresses T1, h-5-HT2A receptor (Homo sapiens, UniProt P28223).
T1 construct: purchased Perkin Elmer ES-313-M400UA; host or cells: CHO-K1
Description: 5-HT2A receptor binding assay ([125I]-DOI displacement, CHO-K1 membranes). As to conditions: for Selectivity for 5-HT6 v. 5-HT2A: ratio of human 5-HT2A Ki to human 5-HT6 Ki. On the procedure:
(§1) Cells from stable clonal cell lines expressing the corresponding receptor (5-HT6, 5-HT2A or 5-HT2B receptors) were washed with PBS with 0.02% EDTA. The cells were collected by centrifugation at 500 g for 10 min. at 4° C., washed with PBS and centrifuged (500 g, 10 min. 4° C.). The pellets were stored at −80° C. until use. For membrane preparation, the thawed cell pellet was resuspended in ice-cold sucrose buffer (0.25 M sucrose, 10 mM Hepes (pH 7.4), 1 mM Phenylmethylsulfonyl fluoride (PMSF) in DMSO, […] Pepstatin-A, 3 mM EDTA, 0.025% Bacitracin) and homogenized with a Branson Sonifier W-250 (Settings: Timer 4; Output Control 3; Duty Cycle constant; 2 to 3 cycles). Cell disruption was checked with the aid of a microscope. Remaining unbroken cells were pelleted at 1,000 g for 10 min. at 4° C. The sucrose buffer supernatant was then centrifuged at 60,000 g for 1 h at 4° C. (Beckman Ultrazentrifuge XL 80). The pellet was resuspended in 30 ml ice-cold Tris buffer (20 mM TRIS (pH 7.4), 5 g/ml Pepstatin A, 0.1 mM PMSF, 3 mM EDTA) by pipetting through a 10 ml serological pipet and centrifuged for 1 h at 4° C. at 60,000 g. A final resuspension was performed in a small volume of ice-cold Tris buffer (see above) by pressing through a serological pipet followed by ultrasonic treatment with a Branson Sonifier W-250 (Settings: Timer 1; Output Control 3; Duty Cycle constant; 1 cycle). Protein concentration was determined (BCA-Kit; Pierce) and aliquots stored at −80° C. or in liquid nitrogen for long-term storage.
All receptor binding experiments were carried out in the corresponding assay buffer in a total volume of 200 μl in the presence of various concentrations of test compound (10^−5 M to 10^−9 M, tenfold serial dilution, duplicate determinations). The assays were terminated by filtration on polyethylenimine (PEI 0.1% or 0.3%) presoaked Packard Unifilter Plates (GF/C or GF/B) with a Tomtec MachIII U 96well-plate harvester. After the plates had been dried for 2 h at 55° C. in a drying chamber scintillation cocktail (BetaPlate Scint; PerkinElmer) was added. Radioactivity was measured in a Microbeta Trilux two hours after the addition of the scintillation mixture. Data derived from liquid scintillation counting were analyzed by iterative non-linear regression analysis with the use of the Statistical Analysis System (SAS): a program similar to “LIGAND” as described by Munson and Rodbard (Analytical Biochemistry 107, 220-239 (1980).
CHO-K1 cell membranes expressing h-5-HT2A receptor (Perkin Elmer ES-313-M400UA) were thawed, diluted in assay buffer (50 mM Tris-HCl, 5 mM MgCl2, 1 mM EGTA, pH 7.4) to a final membrane protein concentration of 25 μg/ml and homogenized by gentle vortexing. For the competition binding studies; 20 μl of varying concentrations of test compounds in assay buffer (or 20 μl of assay buffer), 80 μl of 0.1 nM [^125I]—R—O-DOI (2,5-dimethoxy-4-iodo-amphetamine) (Perkin Elmer NEX-255) were incubated with 100 μl of homogenized membranes (total volume 200 μl). Non-specific binding was determined in the presence of 10 μM (±)-DOI (Sigma D-101). After a 1 hr incubation at room temperature, the binding reaction was harvested (Tomtec Mach III U Harvester) through 96-well GF/C filter plates (Perkin Elmer) presoaked for 1 hr with 20 μl per well of 0.3% polyethylene-imine (PEI). Harvested plates were washed twice with ice-cold assay buffer and dried prior to addition of 35 μl scintillator (BetaplateScint, Perkin Elmer). The radioactivity was determined by liquid scintillation spectrometry in a MicroBeta (Perkin Elmer) plate counter.
Data derived from liquid scintillation counting were analyzed by iterative non-linear regression analysis with the use of the Statistical Analysis System (SAS): a program similar to “LIGAND” as described by Munson and Rodbard (Anal. Biochem. 1980, 107, 220-239). Fitting was performed according to formulae described by Feldman (Anal. Biochem. 1972, 48, 317-338). […]

The target in a further series is T2, h-5-HT2B receptor (Homo sapiens, UniProt P41595).
T2 construct: purchased Perkin Elmer ES-314-M400UA; host or cells: CHO-K1
T2 sequence (P41595 whole entry): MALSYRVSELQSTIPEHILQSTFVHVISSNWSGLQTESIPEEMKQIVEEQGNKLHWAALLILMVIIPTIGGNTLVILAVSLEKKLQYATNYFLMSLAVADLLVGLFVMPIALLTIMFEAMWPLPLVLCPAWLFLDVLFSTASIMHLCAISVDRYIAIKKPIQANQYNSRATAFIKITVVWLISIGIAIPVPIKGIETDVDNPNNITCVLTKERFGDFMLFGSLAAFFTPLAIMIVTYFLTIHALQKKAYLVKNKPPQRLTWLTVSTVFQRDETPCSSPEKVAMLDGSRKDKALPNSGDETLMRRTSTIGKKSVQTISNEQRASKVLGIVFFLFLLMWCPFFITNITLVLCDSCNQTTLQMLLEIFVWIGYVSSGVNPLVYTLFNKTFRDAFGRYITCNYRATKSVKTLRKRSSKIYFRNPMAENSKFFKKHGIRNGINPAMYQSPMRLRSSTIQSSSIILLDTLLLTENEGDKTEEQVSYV
The series is described as follows: 5-HT2B receptor binding assay ([125I]-DOI displacement, CHO-K1 membranes). On the procedure: as §1, with “The pellet was resuspended in 30 ml ice-cold Tris buffer (20 mM TRIS (pH 7.4), 5 g/ml Pepstatin A, 0.1 mM PMSF, 3 mM EDTA) by pipetting through a 10 ml serological pipet and centrifuged for 1 h at 4° C. at 60,000 g. A final resuspension was performed in a small volume of ice-cold Tris buffer (see above) by pressing through a serological pipet followed by ultrasonic treatment with a Branson Sonifier W-250 (Settings: Timer 1; Output Control 3; Duty Cycle constant; 1 cycle).” left out
(§2) All receptor binding experiments were carried out in the corresponding assay buffer in a total volume of 200 μl in the presence of various concentrations of test compound (10^−5 M to 10^−9 M, tenfold serial dilution, duplicate determinations). […] Radioactivity was measured in a Microbeta Trilux two hours after the addition of the scintillation mixture. […]

A short description of series [1]: Rat PK (0.05 mg/kg, iv), plasma and brain levels. Type of series: in vivo. The conditions noted are these: for Free B/P Ratio: free brain concentration divided by free plasma concentration.
The next series addresses T3, h-5-HT6 receptor (Homo sapiens, UniProt P50406).
T3 construct: expressed in transfected cells
The series is described as follows: 5-HT6 receptor binding assay ([3H]-LSD displacement, HEK293 membranes). On the procedure: The cells were collected by centrifugation at 500 g for 10 min. at 4° C., washed with PBS and centrifuged (500 g, 10 min. 4° C.). The pellets were stored at −80° C. until use. For membrane preparation, the thawed cell pellet was resuspended in ice-cold sucrose buffer (0.25 M sucrose, 10 mM Hepes (pH 7.4), 1 mM Phenylmethylsulfonyl fluoride (PMSF) in DMSO, […] Pepstatin-A, 3 mM EDTA, 0.025% Bacitracin) and homogenized with a Branson Sonifier W-250 (Settings: Timer 4; Output Control 3; Duty Cycle constant; 2 to 3 cycles). Cell disruption was checked with the aid of a microscope. Remaining unbroken cells were pelleted at 1,000 g for 10 min. at 4° C. […] Protein concentration was determined (BCA-Kit; Pierce) and aliquots stored at −80° C. or in liquid nitrogen for long-term storage.
as §2
Data derived from liquid scintillation counting were analyzed by iterative non-linear regression analysis with the use of the Statistical Analysis System (SAS): a program similar to “LIGAND” as described by Munson and Rodbard (Anal. Biochem. 1980, 107, 220-239). […]

Series [2] has as its target 78 targets (CEREP) other than the 5-HT6 receptor. Description: CEREP panel of 78 targets. As to conditions: all but the 5-HT2B and 5-HT2A receptors, read-out: Ki at ancillary targets. It is filed as binding.
The next series is described as follows: Rat microsome stability. Type of series: in vitro ADME. The conditions noted are these: rat microsomes, read-out: Rat microsome T1/2.
The target of a further series is Rat 5-HT6 (Rattus norvegicus, UniProt P31388). The series is described as follows: Rat 5-HT6 binding.
Rat 5-HT6, sequence (P31388 whole entry): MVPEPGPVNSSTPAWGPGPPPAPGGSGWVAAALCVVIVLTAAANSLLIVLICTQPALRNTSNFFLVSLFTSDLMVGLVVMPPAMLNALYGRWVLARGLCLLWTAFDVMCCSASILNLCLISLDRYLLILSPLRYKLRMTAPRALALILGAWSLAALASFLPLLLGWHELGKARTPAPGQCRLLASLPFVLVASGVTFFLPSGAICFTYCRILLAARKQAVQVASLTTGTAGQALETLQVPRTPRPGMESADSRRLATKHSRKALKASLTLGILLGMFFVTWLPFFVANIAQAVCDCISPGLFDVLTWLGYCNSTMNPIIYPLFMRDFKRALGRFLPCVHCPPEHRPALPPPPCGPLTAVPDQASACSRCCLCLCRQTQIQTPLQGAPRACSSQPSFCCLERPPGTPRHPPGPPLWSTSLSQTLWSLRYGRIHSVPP
For another series, the target named is 5-HT2a (Homo sapiens, UniProt P28223). As to conditions: background statement on the known PET ligand; cited from earlier work.
5-HT2a, sequence (P28223 whole entry): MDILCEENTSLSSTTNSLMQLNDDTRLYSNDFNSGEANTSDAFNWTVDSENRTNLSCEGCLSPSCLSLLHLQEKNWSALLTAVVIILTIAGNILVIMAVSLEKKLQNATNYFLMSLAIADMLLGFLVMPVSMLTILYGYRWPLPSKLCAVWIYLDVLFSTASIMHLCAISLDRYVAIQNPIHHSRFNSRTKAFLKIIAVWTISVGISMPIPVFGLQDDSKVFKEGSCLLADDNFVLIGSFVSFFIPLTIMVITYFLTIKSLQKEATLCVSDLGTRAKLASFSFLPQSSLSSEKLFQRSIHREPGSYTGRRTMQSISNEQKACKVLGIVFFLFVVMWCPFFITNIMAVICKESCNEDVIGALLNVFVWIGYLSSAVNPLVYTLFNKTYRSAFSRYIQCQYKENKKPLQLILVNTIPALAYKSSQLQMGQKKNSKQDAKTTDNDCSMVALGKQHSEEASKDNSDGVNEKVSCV

T1 sequence (P28223 whole entry): as above
T3 sequence (P50406 whole entry): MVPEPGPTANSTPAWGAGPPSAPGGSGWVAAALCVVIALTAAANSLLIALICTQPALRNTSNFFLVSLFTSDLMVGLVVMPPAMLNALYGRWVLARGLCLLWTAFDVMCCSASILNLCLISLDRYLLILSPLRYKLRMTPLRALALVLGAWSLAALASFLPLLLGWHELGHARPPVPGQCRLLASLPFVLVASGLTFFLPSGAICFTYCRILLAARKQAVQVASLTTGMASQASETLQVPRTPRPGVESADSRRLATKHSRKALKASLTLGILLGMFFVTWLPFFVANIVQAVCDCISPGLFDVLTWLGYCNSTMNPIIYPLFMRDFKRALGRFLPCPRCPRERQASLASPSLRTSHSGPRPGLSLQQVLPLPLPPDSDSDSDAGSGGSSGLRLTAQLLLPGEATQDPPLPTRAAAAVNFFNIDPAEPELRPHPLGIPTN

With `CN1CCC(c2cccc3cc(S(=O)(=O)c4ccccn4)cnc23)CC1` [Example 1, 8-(1-methylpiperidin-4-yl)-3-(pyridin-2-ylsulfonyl)quinoline], at h-5-HT2A receptor, the inhibition constant (Ki) turned out to be 123 nM, the “selectivity for 5-HT6 over 5-HT2A” value is 559 fold and the “Selectivity for 5-HT6 v. 5-HT2A” value is on record as 559 x. Besides, at h-5-HT2B receptor, the inhibition constant (Ki) stood at 144 nM and the “selectivity for 5-HT6 over 5-HT2B” value came out at 654.5 fold. Also, in series [1] (3 min after dose), the “Free [brain]” value was found to be 21.5 ng/g, the “Plasma Conc.” value is on record as 104.5 ng/mL and the “Free B/P Ratio” value worked out at 0.21. In addition, in series [1] (5 min after dose), the “Free [brain]” value was 23.1 ng/g, the “Plasma Conc.” value amounted to 83.5 ng/mL and the “Free B/P Ratio” value stood at 0.28. At h-5-HT6 receptor, this compound showed a Ki of 0.22 nM. Besides, in [2], the inhibition constant Ki is more than 1000 nM. In addition, the half-life in “Rat microsome stability” turned out to be 1.73 h.

For `[3H]C([3H])([3H])N1CCC(c2cccc3cc(S(=O)(=O)c4ccccn4)cnc23)CC1` [Example 2, 8-(1-([^3H]methyl)piperidin-4-yl)-3-(pyridin-2-ylsulfonyl)quinoline], where the note is “5 min after dose”, the “F. Cortex/Cer.” value is given as 0.9, the Hippo./Cer. worked out at 1.06 and the Striatum/Cer. came to 0.81. Moreover, for the setting “40 min after dose”, the “F. Cortex/Cer.” value was found to be 1.20, the Hippo./Cer. was found to be 1.07 and the Striatum/Cer. was determined as 1.31.

For the compound `CN1CCN(c2cccc3cc(S(=O)(=O)c4cccc(F)c4)cnc23)CC1` [GSK-215083, reference compound], at h-5-HT2A receptor, the affinity, expressed as Ki, was 0.395 nM; the “selectivity for 5-HT6 over 5-HT2A” value is given as 1.16 fold; the “Selectivity for 5-HT6 v. 5-HT2A” value is given as 1.16 x. In addition, the affinity at Rat 5-HT6 corresponds to a Ki of 0.16 nM. The same compound yielded a Ki on h-5-HT6 receptor of 0.34 nM. The half-life in “Rat microsome stability” was determined as 1.04 h.

Consider `CN1CCN(c2cccc3cc(S(=O)(=O)c4cccc(F)c4)cnc23)CC1` [[^11C]GSK-215083], for which, at 5-HT2a, the inhibitory constant (Ki) was 0.395 nM.
